Patent US20230233569A1 (Revolution Medicines, Inc., priority 2020, published 2023)

How the values were obtained:
Experiment in all cases: Ras-Raf disruption / FRET / MOA assay (BRAF RBD)
Format in all cases: biochemical
NRAS Q61R = NRAS Q61R (Homo sapiens, UniProt P01111+P62937, Q61R); settings: NRAS Q61R; read-out: NRAS Q61R FRET data IC50
In short: (§1)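 TR-FRET in 25 mM HEPES pH 7.3, 100 mM NaCl, 5 mM MgCl2, 0.1% BSA, 0.002% Tween20 with 25 μM Cyclophilin A, 12.5 nM His6-Ras-GMPPNP, 50 nM GST-BRAF RBD; compound 10-point 3-fold series from 30 μM. After 3 h at 25 °C, Eu anti-His/APC anti-GST added for 1.5 h; IC50 from ratio decrease versus DMSO.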

KRAS G12D = KRAS G12D (Homo sapiens, UniProt P01116+P62937, G12D); settings: Ras-Raf disruption, with Cyclophilin A; read-out: KRAS G12D FRET data IC50
Sequence of KRAS G12D (P01116 1-169 isoform P01116-2 G12D limits assumed): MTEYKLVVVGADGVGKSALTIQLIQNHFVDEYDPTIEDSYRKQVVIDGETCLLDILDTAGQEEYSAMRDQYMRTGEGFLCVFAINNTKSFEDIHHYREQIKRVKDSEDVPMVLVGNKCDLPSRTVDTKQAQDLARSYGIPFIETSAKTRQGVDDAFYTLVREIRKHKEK
Sequence of KRAS G12D (P62937 whole entry): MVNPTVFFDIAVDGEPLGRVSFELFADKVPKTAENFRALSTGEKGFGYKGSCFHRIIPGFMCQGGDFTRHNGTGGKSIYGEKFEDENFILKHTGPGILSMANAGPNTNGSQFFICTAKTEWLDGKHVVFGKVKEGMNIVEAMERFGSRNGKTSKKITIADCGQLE
In short: as §1

NRAS Q61K = NRAS Q61K (Homo sapiens, UniProt P01111+P62937, Q61K); settings: NRAS Q61K; read-out: NRAS Q61K FRET data IC50
Sequence of NRAS Q61K (P01111 whole entry Q61K): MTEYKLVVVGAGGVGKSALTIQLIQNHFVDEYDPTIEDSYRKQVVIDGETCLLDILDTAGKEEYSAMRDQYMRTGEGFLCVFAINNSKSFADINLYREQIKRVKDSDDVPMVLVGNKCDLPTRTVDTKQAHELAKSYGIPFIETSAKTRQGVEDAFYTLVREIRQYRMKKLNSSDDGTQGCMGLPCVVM
Sequence of NRAS Q61K (P62937 whole entry): as the sequence (P62937 whole entry) above
In short: as §1

KRAS WT = KRAS WT (Homo sapiens, UniProt P01116+P62937); settings: Ras-Raf disruption, with Cyclophilin A; read-out: KRAS WT FRET data IC50
Sequence of KRAS WT (P01116 1-169 isoform P01116-2 limits assumed): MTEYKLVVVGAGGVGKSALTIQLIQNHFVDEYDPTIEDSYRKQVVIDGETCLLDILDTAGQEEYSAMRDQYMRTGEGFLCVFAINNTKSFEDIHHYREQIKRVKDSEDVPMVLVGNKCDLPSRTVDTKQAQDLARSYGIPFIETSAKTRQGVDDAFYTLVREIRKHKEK
Sequence of KRAS WT (P62937 whole entry): as the sequence (P62937 whole entry) above
In short: as §1

KRAS G13D = KRAS G13D (Homo sapiens, UniProt P01116+P62937, G13D); settings: Ras-Raf disruption, with Cyclophilin A; read-out: KRAS G13D FRET data IC50
Sequence of KRAS G13D (P01116 1-169 isoform P01116-2 G13D limits assumed): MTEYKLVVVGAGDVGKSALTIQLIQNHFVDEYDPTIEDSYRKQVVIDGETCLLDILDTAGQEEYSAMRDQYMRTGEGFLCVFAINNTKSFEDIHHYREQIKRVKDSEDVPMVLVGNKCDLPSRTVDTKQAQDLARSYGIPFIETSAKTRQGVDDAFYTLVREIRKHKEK
Sequence of KRAS G13D (P62937 whole entry): as the sequence (P62937 whole entry) above
In short: as §1

NRAS G12C = NRAS G12C (Homo sapiens, UniProt P01111+P62937, G12C); settings: NRAS G12C; read-out: NRAS G12C FRET data IC50
Sequence of NRAS G12C (P01111 whole entry G12C): as the sequence (P01111 whole entry Q61K) above, with G12C, K61Q counted along it
Sequence of NRAS G12C (P62937 whole entry): as the sequence (P62937 whole entry) above
In short: as §1

KRAS G12S = KRAS G12S (Homo sapiens, UniProt P01116+P62937, G12S); settings: Ras-Raf disruption, with Cyclophilin A; read-out: KRAS G12S FRET data IC50
Sequence of KRAS G12S (P01116 1-169 isoform P01116-2 G12S limits assumed): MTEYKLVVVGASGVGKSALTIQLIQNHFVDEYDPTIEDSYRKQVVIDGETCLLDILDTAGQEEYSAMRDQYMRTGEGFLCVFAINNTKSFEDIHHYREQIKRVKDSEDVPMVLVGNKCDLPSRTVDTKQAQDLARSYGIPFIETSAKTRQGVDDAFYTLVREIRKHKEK
Sequence of KRAS G12S (P62937 whole entry): as the sequence (P62937 whole entry) above
In short: as §1

NRAS WT = NRAS WT (Homo sapiens, UniProt P01111+P62937); settings: NRAS WT; read-out: NRAS WT FRET data IC50
Sequence of NRAS WT (P01111 whole entry): as the sequence (P01111 whole entry Q61K) above, with K61Q counted along it
Sequence of NRAS WT (P62937 whole entry): as the sequence (P62937 whole entry) above
In short: as §1

KRAS G12V = KRAS G12V (Homo sapiens, UniProt P01116+P62937, G12V); settings: Ras-Raf disruption, with Cyclophilin A; read-out: KRAS G12V FRET data IC50
Sequence of KRAS G12V (P01116 1-169 isoform P01116-2 G12V limits assumed): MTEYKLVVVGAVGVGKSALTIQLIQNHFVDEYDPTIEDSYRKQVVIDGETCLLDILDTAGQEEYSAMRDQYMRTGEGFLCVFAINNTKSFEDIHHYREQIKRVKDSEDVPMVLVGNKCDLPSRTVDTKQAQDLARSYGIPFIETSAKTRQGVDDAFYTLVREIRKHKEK
Sequence of KRAS G12V (P62937 whole entry): as the sequence (P62937 whole entry) above
In short: as §1

KRAS Q61H = KRAS Q61H (Homo sapiens, UniProt P01116+P62937, Q61H); settings: KRAS Q61H; read-out: KRAS Q61H FRET data IC50
Sequence of KRAS Q61H (P01116 1-169 isoform P01116-2 Q61H limits assumed): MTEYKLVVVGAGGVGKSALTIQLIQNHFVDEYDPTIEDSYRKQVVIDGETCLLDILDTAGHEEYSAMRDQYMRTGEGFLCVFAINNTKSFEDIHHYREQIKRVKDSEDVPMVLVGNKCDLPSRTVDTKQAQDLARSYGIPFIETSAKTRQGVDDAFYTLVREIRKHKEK
Sequence of KRAS Q61H (P62937 whole entry): as the sequence (P62937 whole entry) above
In short: as §1

KRAS G13C = KRAS G13C (Homo sapiens, UniProt P01116+P62937, G13C); settings: Ras-Raf disruption, with Cyclophilin A; read-out: KRAS G13C FRET data IC50
Sequence of KRAS G13C (P01116 1-169 isoform P01116-2 G13C limits assumed): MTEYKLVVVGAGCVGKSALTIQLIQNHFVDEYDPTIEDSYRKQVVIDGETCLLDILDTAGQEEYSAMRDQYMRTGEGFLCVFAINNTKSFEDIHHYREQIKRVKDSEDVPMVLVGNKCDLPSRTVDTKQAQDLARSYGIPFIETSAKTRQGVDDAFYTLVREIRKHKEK
Sequence of KRAS G13C (P62937 whole entry): as the sequence (P62937 whole entry) above
In short: as §1

KRAS G12C = KRAS G12C (Homo sapiens, UniProt P01116+P62937, G12C); settings: Ras-Raf disruption, with Cyclophilin A; read-out: KRAS G12C FRET data IC50
Sequence of KRAS G12C (P01116 1-169 isoform P01116-2 G12C limits assumed): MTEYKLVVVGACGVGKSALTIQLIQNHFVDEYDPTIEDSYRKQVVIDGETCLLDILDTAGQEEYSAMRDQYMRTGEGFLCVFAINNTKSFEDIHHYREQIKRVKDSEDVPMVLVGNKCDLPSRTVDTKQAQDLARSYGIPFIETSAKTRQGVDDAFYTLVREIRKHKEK
Sequence of KRAS G12C (P62937 whole entry): as the sequence (P62937 whole entry) above
In short: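 His6-K-Ras G12C-GMPPNP (12.5 nM), GST-BRAF RBD (50 nM) and tagless Cyclophilin A (25 μM) incubated 3 h at 25 °C with compound (10-point 3-fold series from 30 μM), pH 7.3 HEPES buffer. Anti-His Eu/anti-GST APC added for 1.5 h; decreased TR-FRET ratio vs DMSO gives IC50.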

Measured: IC50

Sequence of NRAS Q61R (P01111 whole entry Q61R): as the sequence (P01111 whole entry Q61K) above, with K61R counted along it
Sequence of NRAS Q61R (P62937 whole entry): as the sequence (P62937 whole entry) above

CCn1c(-c2cccnc2[C@H](C)OC)c2c3cc(ccc31)-c1csc(n1)C[C@H](NC(=O)[C@H](C(C)C)N(C)C(=O)N1CC(N(C)C(=O)[C@@H]3CN3)C1)C(=O)N1CCC[C@H](N1)C(=O)OCC(C)(C)C2 (atropisomer, axis not shown) [Example 219]
1000 to 10000 nM: KRAS G12D
10 to 100 nM: NRAS Q61K
100 to 1000 nM: all other assays above

CCn1c(-c2cccnc2[C@H](C)OC)c2c3cc(ccc31)-c1csc(n1)C[C@H](NC(=O)[C@H](C(C)C)N(C)C(=O)N1CCCN(C(=O)[C@H]3CN3)CC1)C(=O)N1CCC[C@H](N1)C(=O)OCC(C)(C)C2 (atropisomer, axis not shown) [Example 222]
100 to 1000 nM: KRAS G12D | KRAS G13D | KRAS G12V | KRAS G13C
10 to 100 nM: all other assays above

CCn1c(-c2cccnc2[C@H](C)OC)c2c3cc(ccc31)-c1csc(n1)C[C@H](NC(=O)[C@H](C(C)C)N(C)C(=O)N1CCCN(C(=O)[C@@H]3CN3)CC1)C(=O)N1CCC[C@H](N1)C(=O)OCC(C)(C)C2 (atropisomer, axis not shown) [Example 223]
100 to 1000 nM: KRAS G12D | KRAS G13D | KRAS G12S | KRAS G12V | KRAS G13C
10 to 100 nM: all other assays above

CCn1c(-c2cccnc2[C@H](C)OC)c2c3cc(ccc31)-c1csc(n1)C[C@H](NC(=O)[C@H](C(C)C)N(C)C(=O)N1CC(CN(C)C(=O)[C@H]3CN3)C1)C(=O)N1CCC[C@H](N1)C(=O)OCC(C)(C)C2 (atropisomer, axis not shown) [Example 224]
10 to 100 nM: NRAS Q61R | NRAS Q61K | NRAS G12C | NRAS WT | KRAS Q61H | KRAS G12C
100 to 1000 nM: all other assays above

CCn1c(-c2cccnc2[C@H](C)OC)c2c3cc(ccc31)-c1csc(n1)C[C@H](NC(=O)[C@H](C(C)C)N(C)C(=O)N1CC(CN(C)C(=O)[C@@H]3CN3)C1)C(=O)N1CCC[C@H](N1)C(=O)OCC(C)(C)C2 (atropisomer, axis not shown) [Example 225]
10 to 100 nM: NRAS Q61K | NRAS G12C | NRAS WT | KRAS Q61H | KRAS G12C
100 to 1000 nM: all other assays above

CCn1c(-c2cccnc2[C@H](C)OC)c2c3cc(ccc31)-c1csc(n1)C[C@H](NC(=O)[C@H](C(C)C)N(C)C(=O)N1CC[C@@H](N(C)C(=O)[C@H]3CN3)C1)C(=O)N1CCC[C@H](N1)C(=O)OCC(C)(C)C2 (atropisomer, axis not shown) [Example 226]
1000 to 10000 nM: KRAS G12D
100 to 1000 nM: all other assays above

CCn1c(-c2cccnc2[C@H](C)OC)c2c3cc(ccc31)-c1csc(n1)C[C@H](NC(=O)[C@H](C(C)C)N(C)C(=O)N1CC[C@@H](N(C)C(=O)[C@@H]3CN3)C1)C(=O)N1CCC[C@H](N1)C(=O)OCC(C)(C)C2 (atropisomer, axis not shown) [Example 227]
10 to 100 nM: NRAS Q61K | NRAS G12C | KRAS Q61H
100 to 1000 nM: all other assays above

CCn1c(-c2cccnc2[C@H](C)OC)c2c3cc(ccc31)-c1csc(n1)C[C@H](NC(=O)[C@H](C(C)C)N(C)C(=O)N1CC[C@H](N(C)C(=O)[C@H]3CN3)C1)C(=O)N1CCC[C@H](N1)C(=O)OCC(C)(C)C2 (atropisomer, axis not shown) [Example 228]
1000 to 10000 nM: KRAS G12D
10 to 100 nM: NRAS Q61K | NRAS G12C | KRAS Q61H
100 to 1000 nM: all other assays above

CCn1c(-c2cccnc2[C@H](C)OC)c2c3cc(ccc31)-c1csc(n1)C[C@H](NC(=O)[C@H](C(C)C)N(C)C(=O)N1CC[C@H](N(C)C(=O)[C@@H]3CN3)C1)C(=O)N1CCC[C@H](N1)C(=O)OCC(C)(C)C2 (atropisomer, axis not shown) [Example 229]
1000 to 10000 nM: KRAS G12D
10 to 100 nM: NRAS Q61K | KRAS Q61H
100 to 1000 nM: all other assays above

CCn1c(-c2cccnc2[C@H](C)OC)c2c3cc(ccc31)-c1cc(O)cc(c1)C[C@H](NC(=O)[C@H](C(C)C)N(C)C(=O)[C@@H]1CCCN(C(=O)[C@H]3CN3)C1)C(=O)N1CCC[C@H](N1)C(=O)OCC(C)(C)C2 (atropisomer, axis not shown) [Example 237]
100 to 1000 nM: NRAS Q61R | KRAS G12D | NRAS Q61K | KRAS G13D | KRAS G12V
10 to 100 nM: all other assays above

CCn1c(-c2cccnc2[C@H](C)OC)c2c3cc(ccc31)-c1cc(O)cc(c1)C[C@H](NC(=O)[C@H](C(C)C)N(C)C(=O)[C@H]1C[C@H]3CC[C@@H](C1)N3C(=O)[C@H]1CN1)C(=O)N1CCC[C@H](N1)C(=O)OCC(C)(C)C2 (atropisomer, axis not shown) [Example 245]
10 to 100 nM: KRAS WT | NRAS G12C | NRAS WT | KRAS Q61H | KRAS G13C | KRAS G12C
100 to 1000 nM: all other assays above

CCn1c(-c2cccnc2[C@H](C)OC)c2c3cc(ccc31)-c1cc(O)cc(c1)C[C@H](NC(=O)[C@H](C(C)C)N(C)C(=O)[C@H]1C[C@H]3CC[C@@H](C1)N3C(=O)[C@@H]1CN1)C(=O)N1CCC[C@H](N1)C(=O)OCC(C)(C)C2 (atropisomer, axis not shown) [Example 246]
< 10 nM: KRAS Q61H
100 to 1000 nM: NRAS Q61R | KRAS G13D | KRAS G12S | KRAS G12V
1000 to 10000 nM: KRAS G12D
10 to 100 nM: all other assays above
